Data: patent US20190040004A1, “NEW COMPOUNDS FOR THE TREATMENT AND/OR PREVENTION OF PARASITIC DISEASES AND METHOD OF PRODUCTION OF THEREOF” (INSTITUT DE RECHERCHE POUR LE DEVELOPPEMENT (I.R.D.), priority 2013, published 2019)
Entries after “also recorded” stand apart in the source; their conditions may differ. Like-named read-outs stand apart in the source and are kept apart here.

Experiments:
[1] = test system: T. gondii (GFP expressing parasites) in HFF; assay: T. gondii proliferation in human foreskin fibroblasts; format: cell-based, Toxoplasma gondii; conditions: for IC50: 24 h
Description: To assess the drug activity on toxoplasma proliferation, human foreskin fibroblasts (HFF) were infected with GFP expressing parasites for 30 mns (Striepen et al., Mol Biochem Parasitol. 1998, 92(2):325-38). Cells were then washed and drugs added at various concentrations ranging from 0.1 to 10 uM. After 24 h, cells were washed and fixed (PBS-formaldehyde 2%) and nucleus stained with Hoechst 33258 (2 μg/ml). The number of infected cells i.e cells harbouring a parasitophorous vacuole and the number of parasites per vacuole were determined using an Olympus ScanR microscope (Olympus).
(§1) Antiparasitic activity of a compound is represented by ICo50, which is calculated with Prism software (Prism4 for MacOSX Version 5.0b, December 2008). The cytoxicity of a compound against the host cells of L. infantum and T. gondii, such as THP-1 or HFF cells, was determined with a MTT assay, according to previously described protocol (Sereno et al., Antimicrob Agents Chemother. 2001, 45(4):1168-73). THP-1 is derived from the peripheral blood ofa human with acute monocytic leukemia.

THP-1 cells = assay: MTT cytotoxicity on THP-1 host cells; format: cell-based
Description: as §1

HFF cells = assay: MTT cytotoxicity on HFF host cells; format: cell-based
Description: as §1

[2] = test system: T1, HDAC activity from HELA nuclear extract; assay: Fluorimetric HDAC assay, HeLa nuclear extract; format: biochemical, human
T1 construct: HELA Nuclear extracts IC50; other: HeLa nuclear extract, fluorimetric HDAC kit; […]
Description: (§2) HDAC inhibitory activity was determined by a fluorimetric HDAC assay kit (Active-motif, Belgium), according to manufacturer's instructions. […] Fluorogenic substrate (10 μL) was added, reaction was allowed to proceed for 30 min at room temperature, then stopped by the addition of a developer containing Tichostatin A.

[3] = test system: Leishmania infantum luciferase expressing strain (MHOM/MA/ITMAP269); assay: microbe, parasite or virus in culture; format: cell-based; conditions: for IC50: Leishmania infantum, read-out: L. infantum IC50
From the text: THP-1 is derived from the peripheral blood ofa human with acute monocytic leukemia.

recombinant HDAC1 = recombinant HDAC1 (Homo sapiens, UniProt Q13547); assay: Recombinant HDAC1 inhibition; format: biochemical; conditions: read-out: IC50 recombinant HDAC 1
Description: FIG. 2 illustrates the capacity of the different compounds of 600 nM to inhibit HDAC activity from HELA nuclear extract and from HDAC-recombinant proteins (HDAC 1, HDAC 3, HDAC 6, HDAC 8).
HDAC inhibitory activity was determined by a fluorimetric HDAC assay kit (Active-motif, Belgium), according to manufacturer's instructions. Briefly, 30 μL of HeLa nuclear extract were mixed with 5 μL of 10× compound to be tested and 10 μL of assay buffer. Fluorogenic substrate (10 μL) was added, reaction was allowed to proceed for 30 min at room temperature, then stopped by the addition of a developer containing Tichostatin A. Fluorescence was monitored after 30 min at excitation and emission wavelengths of 360 and 460 nm, respectively. […].

recombinant HDAC6 = biological target: T2, recombinant HDAC6 (Homo sapiens, UniProt Q9UBN7); assay: Recombinant HDAC6 inhibition; format: biochemical
T2 sequence (Q9UBN7 1-1215): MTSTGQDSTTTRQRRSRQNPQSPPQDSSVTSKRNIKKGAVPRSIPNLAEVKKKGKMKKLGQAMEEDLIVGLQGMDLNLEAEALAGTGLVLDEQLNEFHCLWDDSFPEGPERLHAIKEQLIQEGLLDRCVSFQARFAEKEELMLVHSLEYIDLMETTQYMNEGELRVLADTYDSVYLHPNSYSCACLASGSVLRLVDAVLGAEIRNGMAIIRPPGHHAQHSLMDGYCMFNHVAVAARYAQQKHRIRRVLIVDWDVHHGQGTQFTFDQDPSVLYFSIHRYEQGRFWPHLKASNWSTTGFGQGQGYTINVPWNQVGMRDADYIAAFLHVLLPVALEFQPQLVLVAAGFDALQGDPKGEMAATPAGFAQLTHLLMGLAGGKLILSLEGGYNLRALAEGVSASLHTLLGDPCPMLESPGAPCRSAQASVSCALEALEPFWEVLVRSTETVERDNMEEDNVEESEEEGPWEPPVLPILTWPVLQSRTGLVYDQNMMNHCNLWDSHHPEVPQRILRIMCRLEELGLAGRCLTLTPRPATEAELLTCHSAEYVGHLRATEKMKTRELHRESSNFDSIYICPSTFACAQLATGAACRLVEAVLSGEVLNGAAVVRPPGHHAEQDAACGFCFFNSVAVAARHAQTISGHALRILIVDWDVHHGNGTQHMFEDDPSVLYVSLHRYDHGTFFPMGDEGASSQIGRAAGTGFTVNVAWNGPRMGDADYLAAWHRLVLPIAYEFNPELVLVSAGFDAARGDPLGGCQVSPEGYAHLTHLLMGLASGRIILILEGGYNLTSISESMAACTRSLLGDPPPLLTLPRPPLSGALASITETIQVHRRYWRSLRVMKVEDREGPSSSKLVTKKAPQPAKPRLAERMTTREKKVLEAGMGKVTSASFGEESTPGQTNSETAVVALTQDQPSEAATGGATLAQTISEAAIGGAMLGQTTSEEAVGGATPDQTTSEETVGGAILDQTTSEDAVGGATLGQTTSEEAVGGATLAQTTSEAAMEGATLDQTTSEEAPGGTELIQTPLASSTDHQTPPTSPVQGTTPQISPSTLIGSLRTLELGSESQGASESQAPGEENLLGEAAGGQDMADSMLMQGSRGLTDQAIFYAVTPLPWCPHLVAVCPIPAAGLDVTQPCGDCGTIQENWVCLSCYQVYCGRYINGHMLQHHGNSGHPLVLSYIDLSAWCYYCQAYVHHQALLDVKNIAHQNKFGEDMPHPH

type I RH-YFP parasites = assay: RH-YFP type I Toxoplasma proliferation in HFF; format: cell-based, Toxoplasma gondii; conditions: 0.025 to 0.8 uM, 24 h
Description: (§3) To compare the activity of compounds according to the invention to that of prior art on toxoplasma proliferation, human foreskin fibroblasts (HFF) were plated in 96-wells plate (10 000 cells per well). Twenty-four hours later, cells were infected with 40 000 parasites, either RH-YFP type I or type II Prugniaud parasites or tachyzoites (kindly provided by B. Striepen, Athens) for one hour. Cells were then washed and drugs (compound D16 of formula
(§4) (FIG. 4 and FIG. 5) or compound according to the invention (363) (FIG. 6) added at various concentrations ranging from 0.025 to 0.8 uM. After 24 h, cells were washed and fixed (PBS-formaldehyde 2%) and nucleus stained with Hoechst 33258 (2 μg/ml). The number of infected cells ie. cells harbouring a parasitophorous vacuole and the number of parasites per vacuole was determined using an Olympus ScanR microscope (Olympus).

[4] = test system: type II Prugniaud parasites; assay: Type II Prugniaud Toxoplasma proliferation in HFF; format: cell-based, Toxoplasma gondii; conditions: 0.025 to 0.8 uM, 24 h
Description: as §3, §4

[5] = test system: HDAC activity from HELA nuclear extract; assay: Fluorimetric HDAC assay, HeLa nuclear extract; format: biochemical, human; conditions: read-out: IC50 (better HDAC inhibitor among 9 tested compounds)
Description: as §2

[6] = Toxoplasma gondii, Fibroblast, HFF infected, read-out: T. gondi IC50
[7] = HeLa nuclear extract, fluorimetric HDAC kit, read-out: HELA Nuclear extracts IC50
[8] = text summary of Table 1, less active compounds, read-out: HDAC inhibitory activity against HeLa cell nuclear extract
[9] = Toxoplasma gondii, Fibroblast, read-out: T. gondi IC50, HFF infected, 24 h

Chain of recombinant HDAC1 (Q13547 whole entry): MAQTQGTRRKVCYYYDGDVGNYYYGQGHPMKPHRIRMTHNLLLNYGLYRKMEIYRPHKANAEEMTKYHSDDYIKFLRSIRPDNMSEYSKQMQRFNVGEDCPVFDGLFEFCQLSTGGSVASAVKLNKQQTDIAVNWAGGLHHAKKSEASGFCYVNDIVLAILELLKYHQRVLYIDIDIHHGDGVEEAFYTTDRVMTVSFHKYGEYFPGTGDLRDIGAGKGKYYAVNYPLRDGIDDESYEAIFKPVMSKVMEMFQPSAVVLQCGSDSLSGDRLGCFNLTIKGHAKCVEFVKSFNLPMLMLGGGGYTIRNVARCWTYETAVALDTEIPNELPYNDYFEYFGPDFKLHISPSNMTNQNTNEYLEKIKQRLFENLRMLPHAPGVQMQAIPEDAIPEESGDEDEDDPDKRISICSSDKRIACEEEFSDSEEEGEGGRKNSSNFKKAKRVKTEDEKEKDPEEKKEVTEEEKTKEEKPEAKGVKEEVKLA

Row | SMILES | IC50 [1, 6] [nM] | IS Selectivity index LD50 (THP-1)/IC50 T. gondii (THP-1 cells) | THP-1 LD50 (THP-1 cells; human) | IS Selectivity index LD50 (HFF)/IC50 T. gondii (HFF cells) | HFF LD50 (HFF cells; human) [µM] | IC50 [2, 7] [nM] | IC50 [1, 9] [nM] | other results
1 | O=C(NO)c1ccc(CNS(=O)(=O)c2cccc(F)c2)cc1 [Compound 350] | 40000 | 10 | >400 µM | 7.5 | 300.0 ± 50.0 | 8610 | – | IC50 [2, 8]: ~1000 nM
2 | O=C(NO)c1ccccc1 [ST3, hydroxybenzamide, reference compound] | – | – | – | – | – | – | > 50000 | HFF LD50 (HFF cells; MTT cytotoxicity): >400 µM; IC50 [3]: 29300 nM
3 | O=C(CCCCCCC(=O)Nc1ccccc1)NO [SAHA, suberoylanilide hydroxamic acid, reference compound] | – | – | – | – | – | – | – | THP-1 LD50 (THP-1 cells; MTT cytotoxicity): >200 µM
4 | O=C(NO)c1ccc(NC(=O)c2cccc(F)c2)cc1 [Compound 349] | > 50000 | – | 264 ± 8.0 µM | – | >400 | 633 | – | –
5 | COc1ccccc1CNC(=O)c1ccc(C(=O)NO)cc1 [Compound D16, reference compound] | – | – | – | – | – | 7740 | – | IC50 (recombinant HDAC1): > 10000 nM; IC50 (recombinant HDAC6): 198 nM; inhibitory activity on type I RH-YFP parasites proliferation, in words (type I RH-YFP parasites): lack of inhibitory effect; also recorded: no inhibitory activity; inhibitory activity on type II Prugniaud parasites proliferation, in words [4]: no inhibitory activity; inhibitory activity on type II Prugniaud parasites proliferation, in words ([4]; listed as Dl6): lack of inhibitory effect
6 | O=C(NO)c1ccc(CNC(=O)c2cccc(F)c2)cc1 [Compound 345] | < 10000 | 0.3 | 1.7. +/− 0.5 μM | 11.6 | 58.3 ± 1.2 | 866 | – | anti-toxoplasma activity, in words [1]: anti-toxoplasma activity; IC50 ([1]; read-out: T. gondi IC50, HFF infected): 5000 nM; IC50 [5]: 1700 nM; anti-leishmanial activity, in words [3]: anti-leishmanial
7 | Cc1nc(-c2ccc(C(=O)Nc3ccc(C(=O)NO)cc3)cc2)cs1 [Compound 361] | – | 25 | >400 µM | 1.5 | 25.0 ± 4.0 | 1820 | > 10000 | IC50 [2, 8]: ~1000 nM; IC50 [3]: > 60000 nM
8 | Cc1nc(-c2ccc(C(=O)NCc3ccc(C(=O)NO)cc3)cc2)cs1 [Compound 360] | – | 0.4 | 2.2 ± 0.5 µM | 4.5 | 22.6 ± 9.5 | 399 | – | IC50 [5]: 2200 nM; IC50 ([3]; antiparasitic activity): > 60000 nM
9 | COc1cccc(CC(=O)NCc2ccc(C(=O)NO)cc2)c1 [Compound 362] | 52500 | 0.5 | 30.5 ± 3.0 µM | >8 | >400 | 518 | – | –
10 | O=C(NO)c1ccc(NS(=O)(=O)c2cccc(F)c2)cc1 [Compound 351] | – | 1.53 | – | 2.3 | 116.5 ± 35 | 881 | 50000 | –
